The results in this text go back to patent publication US7709484B1, “Substituted melanocortin receptor-specific piperazine compounds” (Palatin Technologies, Inc., priority 2004, dated 2010).

SMILES strings stand for the structures.

The target in one experiment is hMC1-R (Homo sapiens, UniProt Q01726). The experiment in a line: Competitive inhibition binding assay, 125I-NDP-α-MSH, hMC1-R membranes. The conditions noted are these: 1 μM test compound; 0.4 nM 125I-NDP-α-MSH; mean of triplicate; results less than 0% reported as 0%; read-out: Inhibition at 1 μM MC1-R (human). Here is the method:
(§1) Competitive inhibition assay. A competitive inhibition binding assay was conducted using membranes prepared from hMC1-R or B-16 mouse melanoma cells (containing MC1-R), hMC3-R, hMC4-R, and hMC5-R, and using 0.4 nM ^125I-NDP-α-MSH (New England Nuclear, Boston, Mass., USA) in 50 mM HEPES buffer containing 1 mM MgCl2, 2 mM CaCl2, and 5 mM KCl, at pH 7.2. The assay tube also contained a chosen concentration of the test compound of this invention, typically a 1 μM concentration, for determining its efficacy in inhibiting the binding of ^125I-NDP-α-MSH to its receptor. Non-specific binding was measured by complete inhibition of binding of ^125I-NDP-α-MSH in the assay with the presence of 1 μM α-MSH.
(§2) Incubation was for 90 minutes at room temperature, after which the assay mixture was filtered and the membranes washed three times with ice cold buffer. The filter was dried and counted in a gamma counter for remaining radioactivity bound to the membranes. 100% specific binding was defined as the difference in radioactivity (cpm) bound to cell membranes in the absence and presence of 1 μM α-MSH. The cpm obtained in the presence of test compounds are normalized with respect to 100% specific binding to determine the percent inhibition of ^125I-NDP-a-MSH binding. Each assay was conducted in triplicate and the actual mean values are described, with results less than 0% reported as 0%.

A further experiment concerns the target hMC3-R (Homo sapiens, UniProt P41968). The experiment in a line: Competitive inhibition binding assay, 125I-NDP-α-MSH, hMC3-R membranes. Particulars: 1 μM test compound; 0.4 nM 125I-NDP-α-MSH; mean of triplicate; results less than 0% reported as 0%; read-out: Inhibition at 1 μM MC3-R. Here is the method: as §1, §2
For the next experiment, the target named is hMC4-R (Homo sapiens, UniProt P32245). The experiment in a line: Competitive inhibition binding assay, 125I-NDP-α-MSH, hMC4-R membranes. Particulars: 1 μM test compound; 0.4 nM 125I-NDP-α-MSH; mean of triplicate; results less than 0% reported as 0%; read-out: Inhibition at 1 μM MC4-R. The protocol: as §1, §2
In another experiment the target is hMC5-R (Homo sapiens, UniProt P33032). The experiment in a line: Competitive inhibition binding assay, 125I-NDP-α-MSH, hMC5-R membranes. Particulars: 1 μM test compound; 0.4 nM 125I-NDP-α-MSH; mean of triplicate; results less than 0% reported as 0%; read-out: Inhibition at 1 μM MC5-R. Here is the method: as §1, §2
Experiment [1] deals with T1, B-16 mouse melanoma cells (containing MC1-R) (Mus musculus, UniProt Q01727).
T1 construct: B-16 mouse melanoma cells (containing MC1-R); endogenous in cells; host or cells: B-16 mouse melanoma cells
The experiment in a line: Competitive inhibition binding assay, 125I-NDP-α-MSH, B-16 mouse melanoma cell membranes. Particulars: 1 μM test compound; 0.4 nM 125I-NDP-α-MSH; mean of triplicate; results less than 0% reported as 0%; read-out: Inhibition at 1 μM MC1-R (murine). The protocol: as §1, §2

Sequence of hMC5-R (P33032 whole entry): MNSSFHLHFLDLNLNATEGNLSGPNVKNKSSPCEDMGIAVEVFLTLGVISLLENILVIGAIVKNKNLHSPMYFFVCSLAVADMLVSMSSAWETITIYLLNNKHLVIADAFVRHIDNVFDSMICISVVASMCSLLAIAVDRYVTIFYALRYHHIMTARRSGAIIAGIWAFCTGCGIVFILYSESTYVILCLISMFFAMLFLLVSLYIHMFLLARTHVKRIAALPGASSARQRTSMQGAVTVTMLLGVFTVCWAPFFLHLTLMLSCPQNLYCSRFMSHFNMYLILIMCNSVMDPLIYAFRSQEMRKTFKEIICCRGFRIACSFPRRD
T1 sequence (Q01727 whole entry): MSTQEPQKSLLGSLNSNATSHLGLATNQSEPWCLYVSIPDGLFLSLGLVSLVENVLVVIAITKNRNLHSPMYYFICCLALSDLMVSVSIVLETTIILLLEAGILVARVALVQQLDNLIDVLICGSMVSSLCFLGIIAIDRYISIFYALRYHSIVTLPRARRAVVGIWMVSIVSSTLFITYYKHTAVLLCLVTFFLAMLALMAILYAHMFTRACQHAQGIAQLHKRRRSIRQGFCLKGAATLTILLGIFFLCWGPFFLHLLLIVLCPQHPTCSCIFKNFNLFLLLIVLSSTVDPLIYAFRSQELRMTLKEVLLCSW
Sequence of hMC3-R (P41968 whole entry): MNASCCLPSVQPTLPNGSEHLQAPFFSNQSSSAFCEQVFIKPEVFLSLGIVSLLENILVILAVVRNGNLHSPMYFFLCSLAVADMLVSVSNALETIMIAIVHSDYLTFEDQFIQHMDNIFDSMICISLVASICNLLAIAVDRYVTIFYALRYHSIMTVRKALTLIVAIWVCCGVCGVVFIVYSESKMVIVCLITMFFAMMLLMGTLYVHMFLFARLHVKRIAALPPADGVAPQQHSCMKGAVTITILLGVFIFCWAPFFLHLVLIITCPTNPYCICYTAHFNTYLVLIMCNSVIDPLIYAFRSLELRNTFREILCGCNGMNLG
Sequence of hMC4-R (P32245 whole entry): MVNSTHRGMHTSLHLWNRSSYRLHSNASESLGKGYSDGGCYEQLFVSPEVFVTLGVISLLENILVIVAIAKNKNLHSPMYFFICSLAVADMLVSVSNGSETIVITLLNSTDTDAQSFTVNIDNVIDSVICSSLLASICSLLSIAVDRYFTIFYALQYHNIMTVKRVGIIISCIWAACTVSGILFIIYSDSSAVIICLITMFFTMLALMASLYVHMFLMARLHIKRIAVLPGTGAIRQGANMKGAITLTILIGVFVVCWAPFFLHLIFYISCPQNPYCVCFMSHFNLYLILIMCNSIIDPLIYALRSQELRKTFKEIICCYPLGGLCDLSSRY
Sequence of hMC1-R (Q01726 whole entry): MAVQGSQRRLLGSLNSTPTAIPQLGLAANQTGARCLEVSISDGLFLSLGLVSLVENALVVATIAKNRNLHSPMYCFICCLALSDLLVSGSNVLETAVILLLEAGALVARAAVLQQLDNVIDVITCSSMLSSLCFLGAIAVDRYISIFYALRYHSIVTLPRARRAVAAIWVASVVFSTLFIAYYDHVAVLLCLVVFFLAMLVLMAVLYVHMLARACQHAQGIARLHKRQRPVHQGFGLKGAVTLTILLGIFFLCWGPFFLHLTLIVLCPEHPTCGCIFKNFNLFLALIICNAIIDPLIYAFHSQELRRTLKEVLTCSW

One may read the inhibition as the change of the read-out against control, counted positive when it falls. On to `N[C@H](Cc1ccccc1)C(=O)N1C[C@H](Cc2ccccc2)NC[C@H]1Cc1ccc2ccccc2c1` [Example 1, (R)-2-Amino-1-((2R,5S)-5-benzyl-2-naphthalen-2-ylmethyl-piperazin-1-yl)-3 phenyl-propan-1-one], for which the inhibition at 1 µM on hMC1-R was determined as 0%; at hMC3-R, 14%; on hMC4-R, 33%; on hMC5-R it was 8%.
`O=C(CCc1ccc(Cl)cc1Cl)N1C[C@H](Cc2ccccc2)NC[C@H]1Cc1ccc2ccccc2c1` [Example 2, 1-((2R,5S)-5-Benzyl-2-naphthalen-2-ylmethyl-piperazin-1-yl)-3-(2,4-dichloro-phenyl)-propan-1-one]: the inhibition at 1 µM at hMC1-R was 9%; at hMC3-R, 9%; on hMC4-R, 18%; on hMC5-R, 6%.
Consider `N[C@H](Cc1ccc2ccccc2c1)C(=O)N1C[C@H](Cc2ccccc2)NC[C@H]1Cc1ccc2ccccc2c1` [Example 3, (R)-2-Amino-1-((2R,5S)-5-benzyl-2-naphthalen-2-ylmethyl-piperazin-1-yl)-3-naphthalen-2-yl-propan-1-one], for which the inhibition at 1 µM on hMC1-R turned out to be 10%; on hMC3-R it was 19%; on hMC4-R, 39%; on hMC5-R, 21%.
For the compound `N[C@@H](Cc1ccccc1)C(=O)N1C[C@H](Cc2ccccc2)NC[C@H]1Cc1ccc2ccccc2c1` [Example 4, (S)-2-Amino-1-((2R,5S)-5-benzyl-2-naphthalen-2-ylmethyl-piperazin-1-yl)-3-phenyl-propan-1-one], the inhibition at 1 µM at hMC1-R was 6%; on hMC3-R, 13%; on hMC4-R, 25%; on hMC5-R it was 11%.
Regarding `N[C@H](Cc1ccc(Cl)cc1Cl)C(=O)N1C[C@H](Cc2ccccc2)NC[C@H]1Cc1ccc2ccccc2c1` [Example 5, (R)-2-Amino-1-((2R,5S)-5-benzyl-2-naphthalen-2-ylmethyl-piperazin-1-yl)-3-(2,4-dichloro-phenyl)-propan-1-one], the inhibition at 1 µM at hMC1-R was 0%; on hMC3-R, 12%; on hMC4-R, 34%; at hMC5-R, 22%.
As to `N[C@H](Cc1ccccc1)C(=O)N1C[C@H](Cc2ccccc2)NC[C@H]1Cc1ccccc1` [Example 6, (R)-2-Amino-1-((2R,5S)-2,5-dibenzyl-piperazin-1-yl)-3-phenyl-propan-1-one], the inhibition at 1 µM at hMC1-R was found to be 0%; in experiment [1], 0%; at hMC3-R it was 12%; at hMC4-R it was 4%; at hMC5-R, 13%.
Consider `N[C@H](Cc1ccccc1)C(=O)N1C[C@@H](Cc2ccc3ccccc3c2)NC[C@@H]1Cc1ccccc1` [Example 7, (R)-2-Amino-1-((2S,5R)-2-benzyl-5-naphthalen-2-ylmethyl-piperazin-1-yl)-3-phenyl-propan-1-oneylamino-3-phenyl-propan-1-one], for which the inhibition at 1 µM on hMC1-R stood at 17%; in experiment [1], 0%; at hMC3-R, 9%; on hMC4-R, 16%; on hMC5-R, 13%.
Take `Cc1ccc(S(=O)(=O)N[C@H](Cc2ccc(Cl)cc2)C(=O)N2CCN[C@H](Cc3ccc4ccccc4c3)C2)cc1` [Example 26, N—[(R)-1-(4-Chloro-benzyl)-2-((R)-3-naphthalen-2-ylmethyl-piperazin-1-yl)-2-oxo-ethyl]-4-methyl-benzenesulfonamide]: the inhibition at 1 µM in experiment [1] is 10%; at hMC3-R, 14%; at hMC4-R, 22%; at hMC5-R it was 20%.
Consider `CC(=O)Oc1ccccc1C(=O)N[C@H](Cc1ccc(Cl)cc1)C(=O)N1CCN[C@H](Cc2ccc3ccccc3c2)C1` [Example 27], for which the inhibition at 1 µM in experiment [1] turned out to be 10%; on hMC3-R, 0%; at hMC4-R, 4%; on hMC5-R it was 0%.
Take `CCCC(CCC)C(=O)N[C@H](Cc1ccc(Cl)cc1)C(=O)N1CCN[C@H](Cc2ccc3ccccc3c2)C1` [Example 28, 2-Propyl-pentanoic acid [(R)-1-(4-chloro-benzyl)-2-((R)-3-naphthalen-2-ylmethyl-piperazin-1-yl)-2-oxo-ethyl]-amide]: the inhibition at 1 µM was 0% in experiment [1], 0% at hMC3-R, 38% on hMC4-R and -4% at hMC5-R.
